In this experiment the target is Kappa-type opioid receptor (Homo sapiens, UniProt P41145). Description: kappa opioid receptor blockers, image-based, SAR follow-up (AID 2348).

For orientation: IC50 means the concentration needed to halve the response being measured.

Kappa-type opioid receptor, sequence (P41145 whole entry): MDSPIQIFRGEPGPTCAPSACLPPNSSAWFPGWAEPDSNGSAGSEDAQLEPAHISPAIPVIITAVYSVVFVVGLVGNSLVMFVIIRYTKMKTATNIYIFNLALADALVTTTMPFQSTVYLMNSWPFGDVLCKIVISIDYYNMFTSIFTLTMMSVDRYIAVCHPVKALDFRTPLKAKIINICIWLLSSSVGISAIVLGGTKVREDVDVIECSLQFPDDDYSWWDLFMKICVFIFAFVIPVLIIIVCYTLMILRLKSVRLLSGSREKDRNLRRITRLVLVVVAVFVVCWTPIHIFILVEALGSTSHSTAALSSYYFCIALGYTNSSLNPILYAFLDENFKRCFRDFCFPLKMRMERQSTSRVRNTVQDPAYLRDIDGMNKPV

With `Oc1ccc(CN=Nc2ccnc3cc(Cl)ccc23)cc1O` [(4Z)-4-[[2-(7-chloroquinolin-4-yl)hydrazinyl]methylidene]-2-hydroxycyclohexa-2,5-dien-1-one], the IC50 was 24.8 µM. In turn, `CCC(N=Nc1ccnc2cc(Cl)ccc12)c1ccc(O)cc1` (configuration not stated) [4-[1-[2-(7-chloroquinolin-4-yl)hydrazinyl]propylidene]cyclohexa-2,5-dien-1-one] displayed a concentration for half-maximal inhibition (IC50) of 3.62 µM.

For the origin of these results see BindingDB's records for doi:10.7270/Q25T3HZB (Burnham Center For Chemical Genomics, 2010).
